Test results published in patent publication EP4043466B1, “PRC2 INHIBITORS” (Mirati Therapeutics, Inc., priority 2018, dated 2019).

What was measured:
Karpas 422 cells = assay: Karpas 422 cell viability, CTG (Cell Titre Glo) assay; format: cell-based, human; details: Homo sapiens; Inhibition of proliferation of Karpas 422 cells (EZH2 Y641N); viability measured Day 4, Day 7 or Day 11, time point of the tabulated values not stated
Description: Karpas 422 cell line is a human B cell non-Hodgkin's lymphoma cell line established from a patient having DLBCL. This EZH2 heterozygotic cell line expresses a mutant form of EZH2 enzyme (Y641N) that increases histone H3 methylation and this mutation has been implicated in the tumorgenesis of lymphomas, such as DLBCL.
Karpas 422 cells (PHE cat no., 06101702) were cultured in RPMI medium supplemented with 20% fetal bovine serum and 1% penicillin/1% streptomycin and plated at a density of 1000 cells/90 µl/well in 96 well white assay plates. A dose response curve for compounds of the present invention was determined by adding a 10µl aliquot of stock solutions of varying concentrations of compounds to the same medium in each well, over a concentration range of 10µM using 3-fold dilutions to a final concentration of 1.5nM. The plates were incubated at 37° C for predetermined time periods, Day 4, Day 7, or Day 11, and the viability of the cells was measured using a CTG assay kit (Cell Titre Glo; Promega cat.no G7573) on Day 4 and Day 7 in accordance with the manufacturer's instructions.
For the viability assay for the Day 11 plates, the plates were subjected to centrifugation at 1100 rpm for five minutes on Day 7 and the supernatant was removed by aspiration. The cells were resuspended in 90 µl aliquot of the appropriate growth medium lacking the compound followed by addition of 10 µl of a 10X stock of the same compound at the same concentration. The viability of the Day 11 cells was measured using the CTG assay kit described above in accordance with the manufacturer's instructions. The IC50 values for each compound at each predetermined time point were calculated using Graph pad PRISM software and the results are shown in Table 15. A = ≤250 nM; B = […] - ≤500 nM; and C = >500 nM.

[1] = target: purified human, His-tagged PRC2 complex (Homo sapiens, UniProt O75530+Q15910); assay: Hot Spot HMT assay: inhibition of PRC2 enzymatic activity (transfer of tritiated methyl from SAM to core histone, filter binding); format: biochemical; details: Inhibition of PRC2-mediated enzymatic activity; 10 nM PRC2 complex, 0.05 mg/ml core histone H3, 1 uM 3H-SAM, 1 hr at 30°C
Excerpt: The assay uses purified human, His-tagged PRC2 complex, including N-terminal His-tagged EZH2 enzyme, N-terminal Flag-tagged embryonic ectoderm development protein (EED), N-terminal His-tagged suppressor of zeste 12 (SUZ12), N-terminal His-tagged AEBP2, and N-terminal His-tagged RbAp48. In this assay, the transfer of the tritiated methyl group from radiolabeled S-adenosyl methionine (SAM) to purified core histone protein by EZH2 is quantitated after filtration to determine the activity of the core PRC2 complex in the presence and absence of compound.
The initial starting concentration for the serial dilutions of each compound was 1.0 µM. […] SAH (S-(5-adenosyl)-L-homocysteine) was used as a positive control for assay validation.
An aliquot of each serial dilution of test compound was added to deep 384 well plate using Acoustic Technology instrument (Echo 550, LabCyte) containing reaction buffer (50 mM Tris-HCl (pH 8.)), 0.01% Brij35, 1 mM EDTA, 1 mM DTT, 1 mM PMSF and 1% DMSO), 10 nM purified PRC2 complex and 0.05 mg/ml core histone H3 in a 5 µl volume. The reaction was mixed gently and then pre-incubated for 20 min at 30°C. The enzymatic reaction was initiated by adding 1 uM S-Adenosyl-L-[methyl - ^3H]methionine and incubated for 1 hr at 30°C. After 1 hr, the reaction product was detected using a filter binding method and the amount of tritiated H3 core histone was quantitated using a scintillation counter.

Sequence of purified human, His-tagged PRC2 complex (Q15910 whole entry): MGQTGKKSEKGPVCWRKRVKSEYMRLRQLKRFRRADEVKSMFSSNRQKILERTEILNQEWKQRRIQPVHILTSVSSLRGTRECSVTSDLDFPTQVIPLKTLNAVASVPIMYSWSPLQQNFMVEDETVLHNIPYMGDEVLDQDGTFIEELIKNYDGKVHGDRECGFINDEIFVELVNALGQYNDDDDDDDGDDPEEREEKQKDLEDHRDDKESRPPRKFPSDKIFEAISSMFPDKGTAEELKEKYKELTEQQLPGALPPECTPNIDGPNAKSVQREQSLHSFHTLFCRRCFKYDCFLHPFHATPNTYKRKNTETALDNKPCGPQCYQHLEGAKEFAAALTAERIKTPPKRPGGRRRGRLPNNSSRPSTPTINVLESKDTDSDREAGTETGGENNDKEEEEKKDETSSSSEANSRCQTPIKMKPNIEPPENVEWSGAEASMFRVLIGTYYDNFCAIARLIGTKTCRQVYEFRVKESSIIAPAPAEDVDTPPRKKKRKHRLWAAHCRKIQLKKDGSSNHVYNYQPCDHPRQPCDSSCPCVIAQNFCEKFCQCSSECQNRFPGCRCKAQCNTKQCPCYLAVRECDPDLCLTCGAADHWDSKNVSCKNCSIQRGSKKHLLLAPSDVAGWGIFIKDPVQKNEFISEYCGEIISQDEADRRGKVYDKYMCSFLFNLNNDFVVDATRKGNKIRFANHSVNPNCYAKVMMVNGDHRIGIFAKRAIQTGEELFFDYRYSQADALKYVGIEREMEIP
Sequence of purified human, His-tagged PRC2 complex (O75530 whole entry): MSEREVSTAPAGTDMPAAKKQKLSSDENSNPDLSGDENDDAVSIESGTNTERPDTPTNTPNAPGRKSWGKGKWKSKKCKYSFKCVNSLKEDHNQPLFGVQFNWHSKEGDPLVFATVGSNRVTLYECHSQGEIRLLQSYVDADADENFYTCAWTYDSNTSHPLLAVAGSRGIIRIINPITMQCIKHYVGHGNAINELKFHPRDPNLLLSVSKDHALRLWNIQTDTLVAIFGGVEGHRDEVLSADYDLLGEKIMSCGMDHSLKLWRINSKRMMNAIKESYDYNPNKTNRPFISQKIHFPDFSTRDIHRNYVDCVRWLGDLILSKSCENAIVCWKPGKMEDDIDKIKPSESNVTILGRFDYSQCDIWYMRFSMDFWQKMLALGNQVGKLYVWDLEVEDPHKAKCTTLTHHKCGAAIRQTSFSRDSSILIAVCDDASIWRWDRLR
Sequence of purified human, His-tagged PRC2 complex (Q15022 whole entry partner): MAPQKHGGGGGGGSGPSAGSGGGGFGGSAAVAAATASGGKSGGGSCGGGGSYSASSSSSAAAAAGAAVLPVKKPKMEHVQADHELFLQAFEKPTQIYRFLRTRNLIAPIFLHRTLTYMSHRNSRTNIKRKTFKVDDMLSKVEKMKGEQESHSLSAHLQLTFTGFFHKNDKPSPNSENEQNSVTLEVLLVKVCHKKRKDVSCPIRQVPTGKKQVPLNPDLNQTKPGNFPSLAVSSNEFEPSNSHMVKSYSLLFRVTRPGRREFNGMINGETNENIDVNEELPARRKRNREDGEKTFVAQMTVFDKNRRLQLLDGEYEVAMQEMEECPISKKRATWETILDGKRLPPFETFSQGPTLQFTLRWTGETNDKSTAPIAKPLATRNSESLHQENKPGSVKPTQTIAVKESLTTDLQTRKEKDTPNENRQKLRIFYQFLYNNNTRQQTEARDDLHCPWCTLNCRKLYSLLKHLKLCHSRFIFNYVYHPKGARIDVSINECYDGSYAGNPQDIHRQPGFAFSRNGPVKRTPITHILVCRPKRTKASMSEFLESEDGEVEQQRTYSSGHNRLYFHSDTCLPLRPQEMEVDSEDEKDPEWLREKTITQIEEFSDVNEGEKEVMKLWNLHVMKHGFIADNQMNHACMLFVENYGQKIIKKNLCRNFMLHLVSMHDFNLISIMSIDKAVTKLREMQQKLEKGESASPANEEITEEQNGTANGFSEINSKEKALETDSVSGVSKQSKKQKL
Sequence of purified human, His-tagged PRC2 complex (Q6ZN18 whole entry partner): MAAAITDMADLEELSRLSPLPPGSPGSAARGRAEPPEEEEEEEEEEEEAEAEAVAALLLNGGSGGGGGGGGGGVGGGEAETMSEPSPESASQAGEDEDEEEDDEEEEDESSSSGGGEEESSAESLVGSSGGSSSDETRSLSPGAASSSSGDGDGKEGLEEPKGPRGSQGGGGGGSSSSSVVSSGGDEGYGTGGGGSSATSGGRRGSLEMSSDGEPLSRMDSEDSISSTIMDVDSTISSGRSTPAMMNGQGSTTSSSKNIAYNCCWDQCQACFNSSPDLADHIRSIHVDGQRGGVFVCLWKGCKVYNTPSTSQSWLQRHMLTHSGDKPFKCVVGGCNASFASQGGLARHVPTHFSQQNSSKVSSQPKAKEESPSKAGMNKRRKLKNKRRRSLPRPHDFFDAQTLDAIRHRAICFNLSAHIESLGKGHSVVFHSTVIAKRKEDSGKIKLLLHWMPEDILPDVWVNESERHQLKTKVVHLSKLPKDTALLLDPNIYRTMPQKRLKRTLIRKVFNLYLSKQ
Sequence of purified human, His-tagged PRC2 complex (Q09028 whole entry partner): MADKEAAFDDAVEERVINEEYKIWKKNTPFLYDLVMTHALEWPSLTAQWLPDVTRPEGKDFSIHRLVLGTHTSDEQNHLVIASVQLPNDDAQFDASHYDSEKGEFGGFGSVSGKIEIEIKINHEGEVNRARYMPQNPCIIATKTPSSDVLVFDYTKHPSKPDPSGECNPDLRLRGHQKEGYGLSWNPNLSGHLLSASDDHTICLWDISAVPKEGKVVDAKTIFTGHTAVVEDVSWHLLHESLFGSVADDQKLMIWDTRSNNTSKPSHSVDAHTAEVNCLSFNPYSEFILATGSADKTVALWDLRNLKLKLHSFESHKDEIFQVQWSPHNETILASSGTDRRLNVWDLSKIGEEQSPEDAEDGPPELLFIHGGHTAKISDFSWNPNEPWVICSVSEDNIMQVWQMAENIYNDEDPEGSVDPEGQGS

| IC50 (Karpas 422 cells) [nM] | IC50 [1] [nM] | SMILES |
| --- | --- | --- |
| ≤ 250 | < 100 | Cn1nccc1-c1cnc(NCc2c(F)ccc3c2CCO3)n2cc(C#N)nc12 [Example 114, 5-(((5-fluoro-2,3-dihydrobenzofuran-4-yl)methyl)amino)-8-(1-methyl-1H-pyrazol-5-yl)imidazo[1,2-c]pyrimidine-2-carbonitrile] |
| > 500 | < 100 | N#Cc1cn2c(NCc3c(F)ccc4c3CCO4)ncc(-c3cnn(C4CCCCO4)c3)c2n1 (centres unmarked) [Example 118, 5-(((5-fluoro-2,3-dihydrobenzofuran-4-yl)methyl)amino)-8-(1-(tetrahydro-2H-pyran-2-yl)-1H-pyrazol-4-yl)imidazo[1,2-c]pyrimidine-2-carbonitrile] |
| ≤ 250 | < 100 | Cc1nc(N2CCN(C)CC2)ccc1-c1cnc(NCc2c(F)ccc3c2CCO3)n2cc(C(N)=O)nc12 [Example 138, 5-(((5-fluoro-2,3-dihydrobenzofuran-4-yl)methyl)amino)-8-(2-methyl-6-(4-methylpiperazin-1-yl)pyridin-3-yl)imidazo[1,2-c]pyrimidine-2-carboxamide] |
| ≤ 250 | < 100 | CNC(=O)c1cn2c(NCc3c(F)ccc4c3CCO4)ncc(-c3cc(C)nn3C)c2n1 [Example 20, 8-(1,3-dimethyl-1H-pyrazol-5-yl)-5-(((5-fluoro-2,3-dihydrobenzofuran-4-yl)methyl)amino)-N-methylimidazo[1,2-c]pyrimidine-2-carboxamide] |
| ≤ 250 | 100 to 500 | Cc1cc(CN(C)C)c(F)cc1-c1cnc(NCc2c(F)ccc3c2CCO3)n2cc(C#N)nc12 [Example 84, 8-(4-((dimethylamino)methyl)-5-fluoro-2-methylphenyl)-5-(((5-fluoro-2,3-dihydrobenzofuran-4-yl)methyl)amino)imidazo[1,2-c]pyrimidine-2-carbonitrile] |
| > 500 | 100 to 500 | Cc1nn(C[C@H](C)O)c(C)c1-c1cnc(NCc2c(F)ccc3c2CCO3)n2cc(C#N)nc12 [Example 65, (S)-5-(((5-fluoro-2,3-dihydrobenzofuran-4-yl)methyl)amino)-8-(1-(2-hydroxypropyl)-3,5-dimethyl-1H-pyrazol-4-yl)imidazo[1,2-c]pyrimidine-2-carbonitrile] |
| ≤ 250 | < 100 | CN(C)C(=O)c1c(F)cc(-c2cnc(NCc3c(F)ccc4c3CCO4)n3cc(C#N)nc23)cc1F [Example 45, 4-(2-cyano-5-(((5-fluoro-2,3-dihydrobenzofuran-4-yl)methyl)amino)imidazo[1,2-c]pyrimidin-8-yl)-2,6-difluoro-N,N-dimethylbenzamide] |
| ≤ 250 | < 100 | Cc1cc(C(=O)N(C)C)c(F)cc1-c1cnc(NCc2c(F)ccc3c2CCO3)n2cc(C#N)nc12 [Example 43, 4-(2-cyano-5-(((5-fluoro-2,3-dihydrobenzofuran-4-yl)methyl)amlno)lmldazo[1,2-c]pyrlmldln-8-yl)-2-fluoro-N,N,5-trimethylbenzamide] |
| 250 to 500 | < 100 | Cc1nn(C(C)C)cc1-c1cnc(NCc2c(F)ccc3c2CCO3)n2cc(C(N)=O)nc12 [Example 13, 5-(((5-fluoro-2,3-dihydrobenzofuran-4-yl)methyl)amino)-8-(1-isopropyl-3-methyl-1H-pyrazol-4-yl)imidazo[1,2-c]pyrimidine-2-carboxamide] |
| ≤ 250 | < 100 | Cc1nc(OC(C)C)ncc1-c1cnc(NCc2c(F)ccc3c2CCO3)n2cc(C#N)nc12 [Example 89, 5-(((5-fluoro-2,3-dihydrobenzofuran-4-yl)methyl)amino)-8-(2-isopropoxy-4-methylpyrimidin-5-yl)imidazo[1,2-c]pyrimidine-2-carbonitrile] |
| 250 to 500 | < 100 | N#Cc1cn2c(NCc3c(F)ccc4c3CCO4)ncc(-c3ccc(N)nc3)c2n1 [Example 127, 8-(6-aminopyridin-3-yl)-5-(((5-fluoro-2,3-dihydrobenzofuran-4-yl)methyl)amino)imidazo[1,2-c]pyrimidine-2-carbonitrile] |
| ≤ 250 | > 500 | Cc1cc(-c2cnc(NCc3c(F)ccc4c3CCO4)n3cc(C(=O)N(C)C)nc23)n(C)n1 [Example 21, 8-(1,3-dimethyl-1H-pyrazol-5-yl)-5-(((5-fluoro-2,3-dihydrobenzofuran-4-yl)methyl)amino)-N,N-dimethylimidazo[1,2-c]pyrimidine-2-carboxamide] |
| 250 to 500 | < 100 | Cc1c(-c2cnc(NCc3c(F)ccc4c3CCO4)n3cc(C(N)=O)nc23)cnn1C(C)C [Example 16, 5-(((5-fluoro-2,3-dihydrobenzofuran-4-yl)methyl)amino)-8-(1-isopropyl-5-methyl-1H-pyrazol-4-yl)imidazo[1,2-c]pyrimidine-2-carboxamide] |
| ≤ 250 | 100 to 500 | CCn1cc(-c2cnc(NCc3c(F)ccc4c3CCO4)n3cc(C#N)nc23)cn1 [Example 119, 8-(1-ethyl-1H-pyrazol-4-yl)-5-(((5-fluoro-2,3-dihydrobenzofuran-4-yl)methyl)amino)imidazo[1,2-c]pyrimidine-2-carbonitrile] |
| ≤ 250 | < 100 | Cc1ncc(-c2cnc(NCc3c(F)ccc4c3CCO4)n3cc(C#N)nc23)cc1N [Example 129, 8-(5-amino-6-methylpyridin-3-yl)-5-(((5-fluoro-2,3-dihydrobenzofuran-4-yl)methyl)amino)imidazo[1,2-c]pyrimidine-2-carbonitrile] |
| > 500 | < 100 | Cc1ncccc1-c1cnc(NCc2c(F)ccc3occc23)n2cc(C(N)=O)nc12 [Example 12, 5-(((5-fluorobenzofuran-4-yl)methyl)amino)-8-(2-methylpyridin-3-yl)imidazo[1,2-c]pyrimidine-2-carboxamide] |
| ≤ 250 | < 100 | CN(C)Cc1ncc(-c2cnc(NCc3c(F)ccc4c3CCO4)n3cc(C#N)nc23)cc1F [Example 40, 8-(6-((dimethylamino)methyl)-5-fluoropyridin-3-yl)-5-(((5-fluoro-2,3-dihydrobenzofuran-4-yl)methyl)amino)imidazo[1,2-c]pyrimidine-2-carbonitrile] |
| ≤ 250 | < 100 | N#Cc1cn2c(NCc3c(F)ccc4c3CCO4)ncc(-c3ccc(C4CC4)nc3)c2n1 [Example 116, 8-(6-cyclopropylpyridin-3-yl)-5-(((5-fluoro-2,3-dihydrobenzofuran-4-yl)methyl)amino)imidazo[1,2-c]pyrimidine-2-carbonitrile] |
| 250 to 500 | > 500 | N#Cc1cn2c(NCc3c(F)ccc4c3CCO4)ncc(-c3cncc(C(F)(F)F)c3)c2n1 [Example 132, 5-(((5-fluoro-2,3-dihydrobenzofuran-4-yl)methyl)amino)-8-(5-(trifluoromethyl)pyridin-3-yl)imidazo[1,2-c]pyrimidine-2-carbonitrile] |
| ≤ 250 | 100 to 500 | N#Cc1cn2c(NCc3c(F)ccc4c3CCO4)ncc(-c3ccc(CO)nc3)c2n1 [Example 147, 5-(((5-fluoro-2,3-dihydrobenzofuran-4-yl)methyl)amino)-8-(6-(hydroxymethyl)pyridin-3-yl)imidazo[1,2-c]pyrimidine-2-carbonitrile] |
| ≤ 250 | < 100 | Cc1cc(-c2cnc(NCc3c(F)ccc4c3CCO4)n3cc(C#N)nc23)cnn1 [Example 41, 5-(((5-fluoro-2,3-dihydrobenzofuran-4-yl)methyl)amino)-8-(6-methylpyridazin-4-yl)imidazo[1,2-c]pyrimidine-2-carbonitrile] |
| > 500 | 100 to 500 | N#Cc1cn2c(NCc3c(F)ccc4c3CCO4)ncc(-c3cnn(C4COC4)c3)c2n1 [Example 106, 5-(((5-fluoro-2,3-dihydrobenzofuran-4-yl)methyl)amino)-8-(1-(oxetan-3-yl)-1H-pyrazol-4-yl)imidazo[1,2-c]pyrimidine-2-carbonitrile] |
